The source of these data is US10780074B2, “Compounds and uses thereof” (Sunovion Pharmaceuticals Inc., priority 2017, dated 2020).

Where a name gives a salt, the structure may show the parent alone. Bounds are passed on as bounds.

The assay relates to behaviors of compound-treated mice. Briefly: Neuropharmacological Assay (SmartCube). The format is in vivo. To be noted: for minimal effective dose: Mus musculus, ip, 0.25 h, dose having 50% or more total activity in SmartCube, i.p., read-out: MED (minimal effective dose); for AD: ADHD (probability that activity matches class) / AG: analgesic (probability that activity matches class) / AX: anxiolytic (probability that activity matches class) / CE: cognitive enhancer (probability that activity matches class) / DP: anti-depressant (probability that activity matches class) / MS: mood stabilizer (probability that activity matches class) / PS: anti-psychotic (probability that activity matches class) / SD: sedative hypnotic (probability that activity matches class) / UN: uncharacterized CNS activity (probability that activity matches class): i.p. 15 min before behavioral test, most efficacious dose(s) of 3 doses. From the text:
Neuropharmacological Assay (SmartCube™)
Neurosci. 2011 Sep. 9; 5:103 (doi: 10.3389/fnins.2011.00103) (“Roberds”). As reported in Roberds, because psychiatric diseases generally result from disorders of cell-cell communication or circuitry, intact systems are useful in detecting improvement in disease-relevant endpoints. These endpoints are typically behavioral in nature, often requiring human observation and interpretation. To facilitate testing of multiple compounds for behavioral effects relevant to psychiatric disease, PsychoGenics, Inc. (Tarrytown, N.Y., “PGI”) developed SmartCube™, an automated system in which behaviors of compound-treated mice are captured by digital video and analyzed with computer algorithms. (D. Brunner et al., Drug Discov. Today 2002, 7:S107-S112). PGI Analytical Systems uses data from SmartCube™ to compare the behavioral signature of a test compound to a database of behavioral signatures obtained using a large set of diverse reference compounds. (The composition of the database as well as validation of the method is further described in Roberds). In this way, the neuropharmacological effects of a test compound can be predicted by similarity to major classes of compounds, such as antipsychotics, anxiolytics and antidepressants.
The SmartCube™ system produces an activity signature indicating the probability that the activity of the test compound at the administered dose matches a given class of neuropharmacological agents. (See, e.g., Roberds, FIGS. 2 and 3). The test compound is simultaneously compared against multiple classes of agents; thus, a separate probability is generated for each behavioral effect measured (e.g., anxiolytic activity, analgesic activity, etc.). In the table below, these probabilities are reported for each behavioral effect measured as follows:
Provided compounds were dissolved in a mixture of Pharmasolve™ (N-methyl-2-pyrrolidone), polyethylene glycol and propylene glycol, and were injected i.p. 15 min. before the behavioral test. For each compound, injections were administered at 3 different doses. For each behavioral effect measured, results for the most efficacious dose(s) are presented. In the table below, DP: anti-depressant; AX: anxiolytic; SD: sedative hypnotic; PS: anti-psychotic; MS: mood stabilizer; AD: ADHD; CE: cognitive enhancer; AG: analgesic; UN: uncharacterized CNS activity.
The potency of many of the compounds in the table was also determined in the SmartCube™ system. Test compounds were routinely examined at dose levels of 0.3, 1, 3 10 and 30 mg per kg (mpk), although the dose range was increased or decreased if necessary to obtain a full dose response curve. A compound's minimal effective dose (MED) is a measure of the compounds potency. The MED was defined as the dose (in mpk) having 50% or more total activity in SmartCube.

On to `CNC[C@@H]1OCc2c(-c3ccncc3)cccc21` (single isomer, unassigned) [Compound 39, hydrochloride salt], for which the minimal effective dose was no more than 3 mg/kg, the “AD: ADHD (probability that activity matches class)” value (from here on “AD: ADHD”) is given as “++ (5% ≤ ++ <25%)”, the “AG: analgesic (probability that activity matches class)” value (shortened to “AG: analgesic”) is “+ (LOQ ≤ + <5%)” and the “AX: anxiolytic (probability that activity matches class)” value (“AX: anxiolytic” for short) is “++ (5% ≤ ++ <25%)”. Moreover, the “CE: cognitive enhancer (probability that activity matches class)” value (“CE: cognitive enhancer” for short) is on record as “+ (LOQ ≤ + <5%)”, the “DP: anti-depressant (probability that activity matches class)” value (“DP: anti-depressant” for short) was “++++ (50% ≤ ++++)”, the “MS: mood stabilizer (probability that activity matches class)” value (from here on “MS: mood stabilizer”) is given as “+ (LOQ ≤ + <5%)” and the “PS: anti-psychotic (probability that activity matches class)” value (from here on “PS: anti-psychotic”) is reported as “+ (LOQ ≤ + <5%)”. Moreover, the “SD: sedative hypnotic (probability that activity matches class)” value (“SD: sedative hypnotic” for short) is listed as “++ (5% ≤ ++ <25%)” and the “UN: uncharacterized CNS activity (probability that activity matches class)” value (“UN: uncharacterized CNS activity” below) is “+ (LOQ ≤ + <5%)”.
In the case of `NC[C@@H]1OCc2c(-c3ccccn3)cccc21` (single isomer, unassigned) [Compound 41], the minimal effective dose lay within 10 to 30 mg/kg, the “AD: ADHD” value is reported as “+ (LOQ ≤ + <5%)”, the “AG: analgesic” value is on record as “+ (LOQ ≤ + <5%)” and the “AX: anxiolytic” value was “++ (5% ≤ ++ <25%)”. The “CE: cognitive enhancer” value is “++ (5% ≤ ++ <25%)”, the “DP: anti-depressant” value is listed as “++ (5% ≤ ++ <25%)”, the “MS: mood stabilizer” value is on record as “+ (LOQ ≤ + <5%)” and the “PS: anti-psychotic” value is given as “+ (LOQ ≤ + <5%)”. In addition, the “SD: sedative hypnotic” value is on record as “++ (5% ≤ ++ <25%)” and the “UN: uncharacterized CNS activity” value is given as “++++ (50% ≤ ++++)”.
As to `NC[C@H]1OCc2c(-c3ccccn3)cccc21` (single isomer, unassigned) [Compound 42], the minimal effective dose was in the range of 10 to 30 mg/kg, the “AD: ADHD” value is “+ (LOQ ≤ + <5%)”, the “AG: analgesic” value is on record as “+++ (25% ≤ +++ <50%)” and the “AX: anxiolytic” value is on record as “++ (5% ≤ ++ <25%)”. The “CE: cognitive enhancer” value was “++ (5% ≤ ++ <25%)”, the “DP: anti-depressant” value is given as “++ (5% ≤ ++ <25%)”, the “MS: mood stabilizer” value was “+ (LOQ ≤ + <5%)” and the “PS: anti-psychotic” value is listed as “+ (LOQ ≤ + <5%)”. Also, the “SD: sedative hypnotic” value was “+ (LOQ ≤ + <5%)” and the “UN: uncharacterized CNS activity” value is reported as “++ (5% ≤ ++ <25%)”.
`CNC[C@@H]1OCCc2c(-c3ccccn3)cccc21` (single isomer, unassigned) [Compound 43, hydrochloride salt]: the minimal effective dose lay in the range of 10 to 30 mg/kg, the “AD: ADHD” value is “+ (LOQ ≤ + <5%)”, the “AG: analgesic” value is listed as “+ (LOQ ≤ + <5%)” and the “AX: anxiolytic” value is “++ (5% ≤ ++ <25%)”. Moreover, the “CE: cognitive enhancer” value is “+ (LOQ ≤ + <5%)”, the “DP: anti-depressant” value is given as “++ (5% ≤ ++ <25%)”, the “MS: mood stabilizer” value is listed as “+ (LOQ ≤ + <5%)” and the “PS: anti-psychotic” value is listed as “+ (LOQ ≤ + <5%)”. Also, the “SD: sedative hypnotic” value was “+ (LOQ ≤ + <5%)” and the “UN: uncharacterized CNS activity” value is on record as “+++ (25% ≤ +++ <50%)”.
`CNC[C@H]1OCCc2c(-c3ccccn3)cccc21` (single isomer, unassigned) [Compound 44, hydrochloride salt]: the minimal effective dose was no more than 3 mg/kg, the “AD: ADHD” value is “+ (LOQ ≤ + <5%)”, the “AG: analgesic” value is reported as “++ (5% ≤ ++ <25%)” and the “AX: anxiolytic” value is on record as “++ (5% ≤ ++ <25%)”. The “CE: cognitive enhancer” value is recorded as “+ (LOQ ≤ + <5%)”, the “DP: anti-depressant” value is given as “++++ (50% ≤ ++++)”, the “MS: mood stabilizer” value is given as “+ (LOQ ≤ + <5%)” and the “PS: anti-psychotic” value is on record as “+ (LOQ ≤ + <5%)”. In addition, the “SD: sedative hypnotic” value is on record as “+ (LOQ ≤ + <5%)” and the “UN: uncharacterized CNS activity” value was “+ (LOQ ≤ + <5%)”.
Take `NC[C@@H]1OCCc2c(-c3ccccn3)cccc21` (single isomer, unassigned) [Compound 45, hydrochloride]: the minimal effective dose was in the range of 10 to 30 mg/kg, the “AD: ADHD” value was “+ (LOQ ≤ + <5%)”, the “AG: analgesic” value is “++ (5% ≤ ++ <25%)” and the “AX: anxiolytic” value is recorded as “++ (5% ≤ ++ <25%)”. The “CE: cognitive enhancer” value is “+ (LOQ ≤ + <5%)”, the “DP: anti-depressant” value is reported as “++ (5% ≤ ++ <25%)”, the “MS: mood stabilizer” value was “+ (LOQ ≤ + <5%)” and the “PS: anti-psychotic” value is “+ (LOQ ≤ + <5%)”. The “SD: sedative hypnotic” value was “+ (LOQ ≤ + <5%)” and the “UN: uncharacterized CNS activity” value is listed as “+++ (25% ≤ +++ <50%)”.
For the molecule `NC[C@H]1OCCc2c(-c3ccccn3)cccc21` (single isomer, unassigned) [Compound 46, hydrochloride], the minimal effective dose fell in the range of 10 to 30 mg/kg, the “AD: ADHD” value is reported as “+ (LOQ ≤ + <5%)”, the “AG: analgesic” value is on record as “+ (LOQ ≤ + <5%)” and the “AX: anxiolytic” value was “++ (5% ≤ ++ <25%)”. In addition, the “CE: cognitive enhancer” value is “+ (LOQ ≤ + <5%)”, the “DP: anti-depressant” value was “++ (5% ≤ ++ <25%)”, the “MS: mood stabilizer” value is reported as “+ (LOQ ≤ + <5%)” and the “PS: anti-psychotic” value was “+ (LOQ ≤ + <5%)”. In addition, the “SD: sedative hypnotic” value is “+ (LOQ ≤ + <5%)” and the “UN: uncharacterized CNS activity” value is “++++ (50% ≤ ++++)”.
With `CCNC[C@@H]1OCCc2c(-c3ccncc3)cccc21` (single isomer, unassigned) [Compound 66, hydrochloride salt], the minimal effective dose lay in the range of 10 to 30 mg/kg, the “AD: ADHD” value was “+ (LOQ ≤ + <5%)”, the “AG: analgesic” value was “+ (LOQ ≤ + <5%)” and the “AX: anxiolytic” value is recorded as “++ (5% ≤ ++ <25%)”. Also, the “CE: cognitive enhancer” value is reported as “+ (LOQ ≤ + <5%)”, the “DP: anti-depressant” value is on record as “++ (5% ≤ ++ <25%)”, the “MS: mood stabilizer” value is given as “+ (LOQ ≤ + <5%)” and the “PS: anti-psychotic” value is on record as “+ (LOQ ≤ + <5%)”. The “SD: sedative hypnotic” value was “+ (LOQ ≤ + <5%)” and the “UN: uncharacterized CNS activity” value is “+ (LOQ ≤ + <5%)”.
With `CCNC[C@H]1OCCc2c(-c3ccncc3)cccc21` (single isomer, unassigned) [Compound 67, hydrochloride salt], the minimal effective dose is no more than 3 mg/kg, the “AD: ADHD” value is “+ (LOQ ≤ + <5%)”, the “AG: analgesic” value is listed as “+ (LOQ ≤ + <5%)” and the “AX: anxiolytic” value is “+ (LOQ ≤ + <5%)”. The “CE: cognitive enhancer” value is “+ (LOQ ≤ + <5%)”, the “DP: anti-depressant” value was “++++ (50% ≤ ++++)”, the “MS: mood stabilizer” value is “+ (LOQ ≤ + <5%)” and the “PS: anti-psychotic” value is listed as “+ (LOQ ≤ + <5%)”. For the same molecule, the “SD: sedative hypnotic” value is given as “+ (LOQ ≤ + <5%)” and the “UN: uncharacterized CNS activity” value is “++ (5% ≤ ++ <25%)”.
